Experimental data as given in patent publication US10149477B2, “Substituted pyrimidinium compounds for combating animal pests” (BASF SE, priority 2014, dated 2018).

What was measured:
Type in all cases: in vivo
[1] = system: green peach aphid (Myzus persicae); test: Green peach aphid, systemic, artificial diet in 96-well microtiter plates; conditions: 72 h, 3 days, read-out: mortality in comparison with untreated controls
Excerpt: a) For evaluating control of green peach aphid (Myzus persicae) through systemic means the test unit consisted of 96-well-microtiter plates containing liquid artificial diet under an artificial membrane.
The compounds were formulated using a solution containing 75% v/v water and 25% v/v DMSO. Different concentrations of formulated compounds were pipetted into the aphid diet, using a custom built pipetter, at two replications.
After application, 5-8 adult aphids were placed on the artificial membrane inside the microtiter plate wells. The aphids were then allowed to suck on the treated aphid diet and incubated at about 23±1° C. and about 50±5% relative humidity for 3 days. Aphid mortality and fecundity was then visually assessed.

[2] = system: green peach aphid (Myzus persicae); test: Green peach aphid, spray on infested bell pepper plants; conditions: 120 h, sprayed bell pepper plants, after 5 days, read-out: mortality in comparison with untreated controls
Method: (§1) b) The active compounds were formulated by a Tecan liquid handler in 100% cyclohexa-none as a 10,000 ppm solution supplied in tubes. The 10,000 ppm solution was serially diluted in 100% cyclohexanone to make interim solutions. These served as stock solu-tions for which final dilutions were made by the Tecan in 50% acetone:50% water (v/v) into 10 or 20 ml glass vials. A nonionic surfactant (Kinetic®) was included in the solution at a volume of 0.01% (v/v).
(§2) The vials were then inserted into an automated electrostatic sprayer equipped with an atomizing nozzle for application to plants/insects.
Bell pepper plants at the first true-leaf stage were infested prior to treatment by placing heavily infested leaves from the main colony on top of the treatment plants. Aphids were allowed to transfer overnight to accomplish an infestation of 30-50 aphids per plant and the host leaves were removed. The infested plants were then sprayed by an automated electrostatic plant sprayer equipped with an atomizing spray nozzle. The plants were dried in the sprayer fume hood, removed, and then maintained in a growth room under fluorescent lighting in a 24-hr photoperiod at about 25° C. and about 20-40% relative humidity. Aphid mortality on the treated plants, relative to mortality on untreated control plants, was determined after 5 days.

[3] = system: Orchid Thrips (Dichromothrips corbetti); test: Orchid thrips, floral-immersion technique; conditions: dipped orchid flowers, 72 hours after treatment, read-out: mortality in comparison with untreated controls
Method: Dichromothrips corbetti adults used for bioassay were obtained from a colony maintained continuously under laboratory conditions. For testing purposes, the test compound is diluted in a 1:1 mixture of acetone:water (vol:vol), plus 0.01% vol/vol Alkamuls® EL 620 surfactant.
Thrips potency of each compound was evaluated by using a floral-immersion technique. Plastic petri dishes were used as test arenas. All petals of individual, intact orchid flowers were dipped into treatment solution and allowed to dry. Treated flowers were placed into individual petri dishes along with about 20 adult thrips. The petri dishes were then covered with lids. All test arenas were held under continuous light and a temperature of about 28° C. for duration of the assay. After 3 days, the numbers of live thrips were counted on each flower, and along inner walls of each petri dish. The percent mortality was recorded 72 hours after treatment.

[4] = system: Rice Green Leafhopper (Nephotettix virescens); test: Rice green leafhopper, sprayed rice seedlings; conditions: after 72 hours, read-out: mortality in comparison with untreated controls
Method: (§3) Rice seedlings were cleaned and washed 24 hours before spraying. The active compounds were formulated in 50:50 acetone:water (vol:vol), and 0.1% vol/vol surfactant (EL 620) was added. Potted rice seedlings were sprayed with 5 ml test solution, air dried, placed in cages and inoculated with 10 adults. Treated rice plants were kept at about 28-29° C. and relative humidity of about 50-60%. Percent mortality was recorded after 72 hours.

[5] = system: Rice Brown Plant Hopper (Nilaparvata lugens); test: Rice brown plant hopper, sprayed rice seedlings; conditions: after 72 hours, read-out: mortality in comparison with untreated controls
Method: as §3, with “(vol:vol)” for “(vol:vol),”

[6] = system: Cowpea Aphid (Aphis craccivora); test: Cowpea aphid, spray on colonized cowpea plants; conditions: sprayed cowpea plants, after 72 hours, read-out: mortality in comparison with untreated controls
Method: The active compound is dissolved at the desired concentration in a mixture of 1:1 (vol:vol) distilled water: acetone. Surfactant (Kinetic® HV) is added at a rate of 0.01% (vol/vol). The test solution is prepared at the day of use.
Potted cowpea plants were colonized with approximately 30-50 aphids of various stages by manually transferring a leaf tissue cut from infested plant 24 hours before application. Plants were sprayed with the test solutions using a DeVilbiss® hand atom-izer at 20-30 psi (=1.38 to 2.07 bar) after the pest population has been checked. Treat-ed plants are maintained on light carts at about 25-26° C. Percent mortality was assessed after 72 hours.

[7] = system: Cotton Aphid (Aphis gossypii); test: Cotton aphid, spray on infested cotton plants; conditions: 120 h, sprayed cotton plants, after 5 days, read-out: mortality in comparison with untreated controls
Method: as §1, with “The” for “b) The”
as §2
Cotton plants at the cotyledon stage were infested with aphids prior to treatment by placing a heavily infested leaf from the main aphid colony on top of each cotyledon. Aphids were allowed to transfer overnight to accomplish an infestation of 80-100 aphids per plant and the host leaf was removed. The infested plants were then sprayed by an automated electrostatic plant sprayer equipped with an atomizing spray nozzle. The plants were dried in the sprayer fume hood, removed from the sprayer, and then main-tained in a growth room under fluorescent lighting in a 24-hr photoperiod at 25° C. and 20-40% relative humidity. Aphid mortality on the treated plants, relative to mortality on untreated control plants, was determined after 5 days.

[8] = system: vetch aphid (Megoura viciae); test: Vetch aphid, broad bean leaf disks in 24-well microtiter plates; conditions: foliar, 120 h, sprayed leaf disks, 5 days, read-out: mortality in comparison with untreated controls
Method: For evaluating control of vetch aphid (Megoura viciae) through contact or systemic means the test unit consisted of 24-well-microtiter plates containing broad bean leaf disks.
The compounds were formulated using a solution containing 75% v/v water and 25% v/v DMSO. Different concentrations of formulated compounds were sprayed onto the leaf disks at 2.5 μl, using a custom built micro atomizer, at two replications.
After application, the leaf disks were air-dried and 5-8 adult aphids placed on the leaf disks inside the microtiter plate wells. The aphids were then allowed to suck on the treated leaf disks and incubated at about 23+1° C. and about 50+5% relative humidity for 5 days. Aphid mortality and fecundity was then visually assessed.

C[n+]1c([O-])c(-c2ccccc2)c(=O)n2c1SC(c1cnc(Cl)s1)C2 (centres unmarked) [compound 1]
> 75%: mortality at 2500 ppm [1] | mortality at 2500 ppm [2] | mortality at 500 ppm [3] | mortality at 500 ppm [4] | mortality at 500 ppm [5] | mortality at 500 ppm [6] | mortality at 300 ppm [7] | mortality at 2500 ppm [8]
